The source of these data is paper PMC12112332, “Characterization of Novel and Known Activators of Cannabinoid Receptor Subtype 2 Reveals Mixed Pharmacology That Differentiates Mycophenolate Mofetil and GW-842,166X from MDA7” (International Journal of Molecular Sciences, 2025).

The term Ki denotes a dissociation constant, usually derived from enzyme kinetics or from competition with a known ligand. High values mean a looser hold on the target, low ones a stronger hold on the target.

This assay addresses T1, rat CB2 (Rattus norvegicus, UniProt Q9QZN9).
T1 sequence (Q9QZN9 1-360): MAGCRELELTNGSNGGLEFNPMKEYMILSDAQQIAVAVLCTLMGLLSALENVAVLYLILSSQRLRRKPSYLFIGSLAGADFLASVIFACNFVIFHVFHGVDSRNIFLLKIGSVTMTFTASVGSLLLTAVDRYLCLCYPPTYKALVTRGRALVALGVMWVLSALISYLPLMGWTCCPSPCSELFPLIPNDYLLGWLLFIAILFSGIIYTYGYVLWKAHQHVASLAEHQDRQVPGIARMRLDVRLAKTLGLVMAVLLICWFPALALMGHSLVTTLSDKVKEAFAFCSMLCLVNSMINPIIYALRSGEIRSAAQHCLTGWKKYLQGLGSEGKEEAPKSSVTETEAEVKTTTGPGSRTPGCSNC
Kind of assay: [3H]CP55,940 radioligand competition binding, membranes of HEK/GIRK cells expressing rat CB2. Further details: expressed in transfected cells; host or cells: HEK293 cells stably co-expressing GIRK1/2 channels. The text has this:
Agonists that bind to the receptor at the site occupied by the endogenous ligand (2-AG in this case) are considered orthosteric agonists. It is also possible for an agonist to bind and activate a receptor via a site other than the orthosteric site; these ligands are classified as allosteric agonists. To characterize the nature of the agonist activity of mycophenolate mofetil, we tested its ability to bind to the receptor in equilibrium binding assays using membranes harvested from cells expressing rCB2 using the radioligand [^3H]CP55,940 [40, 60]. CP55,940 has an affinity for both CB1 and CB2 receptors in the low nM range and is reported to bind to the site occupied by 2-AG [61].
Competition binding concentration–response curves were obtained in the presence of 0.5 nM [^3H]CP55,940 using membranes harvested from HEK/GIRK cells expressing rCB2. Data represent the mean ± SEM of three independent experiments run in triplicate. Data are plotted as a percentage of specific [^3H]CP55,940 binding. Non-specific binding was determined in the presence of 10 µM CP55,940.
Membranes were made from HEK/GIRK cells stably expressing rat CB2. Radioligand competition binding assays were performed as previously described, with minor modifications. In brief, compounds were serially diluted into assay buffer with 0.1% bovine serum albumin (BSA) and added to each well of a 96-well plate, along with 20 μg/well cell membrane and approximately 500 pM [^3H]-CP55,940 (specific activity = 104 Ci/mmol, PerkinElmer, Waltham, MA, USA). Following a 3-h incubation period on a shaker at room temperature, membrane-bound ligand was separated from free ligand by filtration through glass fiber 96-well filter plates (Unifilter-96, GF/B; PerkinElmer, Waltham, MA, USA). Forty microliters of scintillation fluid were added to each well, and membrane-bound radioactivity was determined by scintillation counting (Microbeta2; Revvity, Waltham, MA, USA). Nonspecific binding was determined using 10 μM of cold CP55,940.
On the technique in general: In a radioligand displacement assay an active substance lowers the binding of a labelled ligand.

Compound `CCCCC/C=C\C/C=C\C/C=C\C/C=C\CCCC(=O)OC(CO)CO` [2-AG, 2-Arachidonoylglycerol] gave a Ki of 3.47 µM. With `COc1ccc(C(=O)c2c(C)n(CCN3CCOCC3)c3cc(I)ccc23)cc1` [AM630], where the note is “0.5 nM [3H]CP55,940, equilibrium”, the “rCB2 Binding Affinity pKi ± SEM” value came out at 7.61 ± 0.29.
